Laboratory results as given in patent publication US5635510A, “Substituted pyrrolidin-3-yl-alkyl-piperidines” (Merrell Pharmaceuticals Inc., priority 1994, dated 1997).

Columns and labels:
[1] = target: T1, human jejunal NK2 receptor (Homo sapiens, UniProt P21452); assay: Antagonism of iodinated neurokinin A binding to NK2 receptor, HSKR-1 cells (mouse 3T3 fibroblasts expressing the human jejunal NK2 receptor); details: for IC50: NK-2 IC50, HSKR-1 cells, 125I-neurokinin A, mean of several experiments
T1 construct: expressed in transfected cells; host or cells: HSKR-1 cells (mouse 3T3 fibroblasts)
T1 sequence (P21452 1-398): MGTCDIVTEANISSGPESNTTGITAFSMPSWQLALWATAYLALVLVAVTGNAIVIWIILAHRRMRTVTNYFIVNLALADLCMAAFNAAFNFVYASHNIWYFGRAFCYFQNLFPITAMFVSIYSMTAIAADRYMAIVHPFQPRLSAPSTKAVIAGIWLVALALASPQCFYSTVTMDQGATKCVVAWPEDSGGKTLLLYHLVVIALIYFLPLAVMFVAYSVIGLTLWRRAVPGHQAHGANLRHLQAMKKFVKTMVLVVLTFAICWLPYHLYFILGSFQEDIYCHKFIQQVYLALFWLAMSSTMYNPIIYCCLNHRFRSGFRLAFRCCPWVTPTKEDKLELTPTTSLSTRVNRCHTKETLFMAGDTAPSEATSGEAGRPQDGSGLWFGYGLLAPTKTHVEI
Method: (§1) ANTAGONISM OF IODINATED TACHYKININ BINDING TO NK1 AND NK2
(§2) RECEPTORS BY PUTATIVE ANTAGONISTS
(§3) The NK1 receptor affinity of proposed tachykinin antagonists was evaluated in guinea pig lungs (Keystone Biologicals, Cleveland, OH), affinity for the NK2 receptor evaluated in HSKR-1 cells (which are mouse 3T3 fibroblasts expressing the human jejunal NK2 receptor) and NK-3 receptor affinity was evaluated in freshly collected guinea pig cerebral cortex. Tissues or cells were homogenized with a Polytron in 15 volumes of 50 mM Tris-HCl buffer (pH 7.4, 4° C.) and centrifuged. The pellet was resuspended in Tris-HCl buffer and was centrifuged; the pellet was washed twice by resuspension. The final pellet was resuspended at a concentration of 40 mg/ml for tissues (guinea pig lung and cerebral cortex) and 20 mg/ml for cells in incubation buffer and remained at room temperature for at least 15 min prior to use. Receptor binding was initiated by addition of 250 ul membrane preparation in duplicate to 0.1 nM of the following radioligands: ^125 I-Bolton Hunter Lys-3 labeled substance P; ^125 iodohistidyl-1-neurokinin A; and ^125 I-Bolton Hunter labeled Lys-4 eledoisin in a final volume of 500 ul of buffer containing 50 mM Tris-HCl (pH 7.4 at room temperature), 0.1% bovine serum albumin, 2 mM MnCl2, 40 ug/ml bacitracin, 4 μg/ml leupeptin and chymostatin, 1 μM thiorphan and various doses of the putative tachykinin antagonists. Incubations were performed at room temperature for 90 min (NK1 receptor assays) or 2 hr (NK2 and NK3 receptor assays); binding was terminated by addition of 50 mM Tris-HCl buffer (pH 7.4, 4° C.) and filtration under vacuum through GF/B filters presoaked with 0.1% polyethyleneimine (NK1 receptor assays) or 0.5% bovine serum albumin (NK2 and NK3 receptor assays). Filter bound radioactivity was quantitated in a gamma counter. Nonspecific binding was defined as binding in the presence of 1 μM substance P, neurokinin A, or eledoisin. Specific binding was calculated by subtracting nonspecific binding from total binding. Competition of iodinated SP, NKA, or eledoisin binding by test compounds or standards was expressed as a percentage of this maximum competition. IC50 values (concentration required to inhibit 50% of receptor binding) were generated for each of the test compounds by nonlinear regression using an iterative curve fitting program (GraphPAD Inplot, San Diego, Calif.).

NK1 receptor = target: T2, NK1 receptor (Cavia porcellus, UniProt P30547); assay: Antagonism of iodinated substance P binding to NK1 receptor, guinea pig lung; details: for IC50: NK-1 IC50, guinea pig lung, 125I-substance P, mean of several experiments
T2 construct: evaluated in guinea pig lungs; tissue Keystone Biologicals, Cleveland, OH; host or cells: guinea pig lung
T2 sequence (P30547 whole entry): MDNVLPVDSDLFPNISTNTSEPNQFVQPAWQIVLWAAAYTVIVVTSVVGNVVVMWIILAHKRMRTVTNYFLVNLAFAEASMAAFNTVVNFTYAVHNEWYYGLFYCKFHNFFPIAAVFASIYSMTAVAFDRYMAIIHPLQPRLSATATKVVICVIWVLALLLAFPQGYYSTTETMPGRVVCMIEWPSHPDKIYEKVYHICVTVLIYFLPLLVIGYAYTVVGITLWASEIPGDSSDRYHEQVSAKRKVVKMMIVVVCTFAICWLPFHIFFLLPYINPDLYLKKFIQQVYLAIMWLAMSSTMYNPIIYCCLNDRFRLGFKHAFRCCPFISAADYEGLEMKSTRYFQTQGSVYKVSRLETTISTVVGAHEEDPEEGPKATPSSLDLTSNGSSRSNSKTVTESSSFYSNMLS
Method: as §1, §2, §3

NK-3 receptor = target: T3, NK-3 receptor (Cavia porcellus, UniProt P30098); assay: Antagonism of iodinated eledoisin binding to NK3 receptor, guinea pig cerebral cortex
T3 construct: evaluated in freshly collected guinea pig cerebral cortex; from tissue; host or cells: guinea pig cerebral cortex
T3 sequence (P30098 1-440): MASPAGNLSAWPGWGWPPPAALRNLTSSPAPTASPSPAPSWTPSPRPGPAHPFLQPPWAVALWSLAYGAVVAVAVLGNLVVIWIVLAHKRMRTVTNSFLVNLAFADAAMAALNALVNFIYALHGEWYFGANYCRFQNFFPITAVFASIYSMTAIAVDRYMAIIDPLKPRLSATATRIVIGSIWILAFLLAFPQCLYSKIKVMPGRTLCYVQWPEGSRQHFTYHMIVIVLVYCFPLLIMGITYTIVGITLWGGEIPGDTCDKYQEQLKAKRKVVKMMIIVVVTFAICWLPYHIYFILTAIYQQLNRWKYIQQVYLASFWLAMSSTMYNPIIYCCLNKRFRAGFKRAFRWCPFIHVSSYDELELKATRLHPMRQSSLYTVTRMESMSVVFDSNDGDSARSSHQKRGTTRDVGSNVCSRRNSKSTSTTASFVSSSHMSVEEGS
Method: as §1, §2
as §3, with “Nonspecific binding was defined as binding in the presence of 1 μM substance P, neurokinin A, or eledoisin.” left out, “IC50 values (concentration required to inhibit 50% of receptor binding) were generated for each of the test compounds by nonlinear regression using an iterative curve fitting program (GraphPAD Inplot, San Diego, Calif.).” left out

NK2 receptor = assay: Antagonism of NKA-induced respiratory effects in conscious guinea pigs; type: in vivo, guinea pig; details: for dyspnea incidence / dyspnea onset: i.v. 20 min prior to NKA aerosol (0.05%); for effect on NKA-induced respiratory effects (in words): NKA aerosol, dose dependent; for dyspnea onset: mean and SEM
Method: In vivo experiments were performed using male Duncan Hartley guinea pigs (250-350g). Changes in conscious breathing patterns were monitored in four animals simultaneously using modified whole body plethysmography consisting of four small plexiglass boxes each connected to a reference box via Validyne DP 45-16 differential pressure transducers. The 4 boxes were equipped with an air supply line (also used for aerosol delivery) and an exhaust air line. Supply and exhaust lines were of the same length and narrow bore and arose from a common supply chamber and vented to a common exhaust chamber. This system was used to ensure that fluctuations in supply air and atmospheric pressure would remain in phase and be eliminated from the net signal by the differential pressure transducers. The analog pressure signals were digitalized via a Data Translation DT2821 A to D board. Data were collected at a rate of 100 samples/second/animal. Each cycle of pressure change was analyzed using the following parameters: rising and falling slope determined between minimum and maximum pressures, the ratio of rising over falling slope, and the magnitude of the change between initial trough pressure and peak cycle pressure. Using these values (and observing the animals) the pressure cycles were characterized into normal breaths, forced exhalations (apparent by abdominal heaving), significant respiratory events (SREs; usually coughs, less often sneezes or gasps which were characterized by transient, extremely large pressure increases which were distinguishable from noise) and movement/noise with a PCAT 286 running a System V UNIX operating system. Dyspnea was defined as a significant, sustained increase in plethysmograph pressure which was associated with an observable shift to labored breathing in the animal.
During the course of a typical experiment in which airway responsiveness to various bronchoconstricting agents was examined, aerosols were delivered for 19 min (0.33 ml/min) using a DeVilbiss Ultraneb 99 ultrasonic nebulizer and animals monitored during this time. Prior to nebulization, 1 min of resting breathing was collected to establish a baseline pressure. […] The vehicle for nebulization of all bronchoconstrictive agents was phosphate buffered saline (pH 7.4) which elicited no respiratory effects itself. Putative tachykinin antagonists were administered either (i.v.) 20 min prior to onset of aerosol exposure or orally 1 hour prior to onset (to guinea pigs after an overnight fast).

Row | Compound | IC50 [1] [nM] | IC50 (NK1 receptor) [nM] | IC50 (NK-3 receptor; NK-3 IC50, guinea pig cerebral cortex, 125I-eledoisin, mean of several experiments) [nM] | affinity for NK2 receptors (in words) ([1]; HSKR-1 cells) | affinity for NK1 receptors (in words) (NK1 receptor; guinea pig lung) | affinity for NK3 receptors (in words) (NK-3 receptor; guinea pig cerebral cortex) | dyspnea incidence (NK2 receptor; 5 mg/kg) [%] | dyspnea incidence (NK2 receptor; 10 mg/kg) [%] | effect on NKA-induced respiratory effects (in words) (NK2 receptor) | dyspnea incidence (NK2 receptor; 1 mg/kg) [%] | dyspnea onset (NK2 receptor; 1 mg/kg) [s] | dyspnea onset (NK2 receptor; 5 mg/kg) [s] | dyspnea onset (NK2 receptor; 10 mg/kg) [s]
1 | COc1cc(C(=O)N2CCC(CCN3CCC(C(N)=O)(c4ccccc4)CC3)(c3ccc(Cl)c(Cl)c3)C2)cc(OC)c1OC (single isomer, unassigned; (+)) [Example 20, (+)-1-[2-[3-(3,4-dichloro-phenyl)-1-(3,4,5-trimethoxy-benzoyl)-pyrrolidin-3-yl]-ethyl]-4-phenylpiperidine-4-carboxylic acid amide] | 8.4 | 4.65 | 21 | – | – | – | – | – | – | – | – | – | –
2 | COc1cc(C(=O)N2CCC(CCN3CCC(C(N)=O)(c4ccccc4)CC3)(c3ccc(Cl)c(Cl)c3)C2)cc(OC)c1OC (stereo not drawn) [Example 3, 1-[2-[3-(3,4-dichloro-phenyl)-1-(3,4,5-trimethoxy-benzoyl)-pyrrolidin-3-yl]-ethyl]-4-phenyl-piperidine-4-carboxylic acid amide] | – | – | – | high affinity | high affinity | high affinity | 86 | 60 | reduced the effects of NKA aerosol | – | – | – | –
3 | COc1cc(C(=O)N2CCC(CCN3CCC(C(N)=O)(c4ccccc4)CC3)(c3ccc(Cl)c(Cl)c3)C2)cc(OC)c1OC.Cl (single isomer, unassigned; (+)) [Example 20A, (+)-1-[2-[3-(3,4-dichloro-phenyl)-1-(3,4,5-trimethoxy-benzoyl)-pyrrolidin-3-yl]-ethyl]-4-phenyl-piperidine-4-carboxylic acid amide hydrochloride] | 7.93 | 2.99 | – | – | – | – | 90 | 70 | reduced the effects of NKA aerosol | 100 | 451 ± 30 | 706 ± 82 | 829 ± 105
